Common to all, as to type: functional, cell-based
Common to all, as to details: monkey, cos-7, 100 µM

Data set [1] addresses T1, Hepatic sodium/bile acid cotransporter (Rattus norvegicus, UniProt P26435).
T1 sequence (P26435 whole entry): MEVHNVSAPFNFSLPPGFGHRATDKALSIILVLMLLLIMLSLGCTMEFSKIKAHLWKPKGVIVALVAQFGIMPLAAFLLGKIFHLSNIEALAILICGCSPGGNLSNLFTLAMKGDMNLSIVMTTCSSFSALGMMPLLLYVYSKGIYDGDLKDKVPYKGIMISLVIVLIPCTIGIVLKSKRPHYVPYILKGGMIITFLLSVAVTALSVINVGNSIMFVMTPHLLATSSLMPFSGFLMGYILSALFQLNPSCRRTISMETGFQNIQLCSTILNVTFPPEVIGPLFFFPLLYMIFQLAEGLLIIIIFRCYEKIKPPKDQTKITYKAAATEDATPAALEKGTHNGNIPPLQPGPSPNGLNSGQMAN
Briefly: TP_TRANSPORTER: inhibition of Taurocholate uptake (Taurocholate: 5 uM, UDCA: 100 uM) in Ntcp-expressing COS-7 cells.

Data set [2] has as its target T1, Hepatic sodium/bile acid cotransporter. Briefly: TP_TRANSPORTER: inhibition of Taurocholate uptake (Taurocholate: 5 uM, CDCA: 100 uM) in Ntcp-expressing COS-7 cells.
For data set [3] the target is unchanged. Briefly: TP_TRANSPORTER: inhibition of Taurocholate uptake (Taurocholate: 5 uM, TUDC: 100 uM) in Ntcp-expressing COS-7 cells.

In the case of `C[C@H](CCC(=O)O)[C@H]1CC[C@H]2[C@@H]3[C@@H](O)C[C@@H]4C[C@H](O)CC[C@]4(C)[C@H]3CC[C@]12C` [URSODIOL], the Activity result in data set [1] was “inhibitor [(at a rough estimate) 45 % of control]”. For `C[C@H](CCC(=O)O)[C@H]1CC[C@H]2[C@@H]3[C@H](O)C[C@@H]4C[C@H](O)CC[C@]4(C)[C@H]3CC[C@]12C` [CHENODIOL], the Activity entry in data set [2] is “inhibitor [(at a rough estimate) 25 % of control]”. Take `C[C@H](CCC(=O)NCCS(=O)(=O)O)[C@H]1CC[C@H]2[C@@H]3[C@@H](O)C[C@@H]4C[C@H](O)CC[C@]4(C)[C@H]3CC[C@]12C` [TAURURSODIOL]: the Activity result in data set [3] is “inhibitor [(at a rough estimate) 25 % of control]”.

Source of the values: ChEMBL document CHEMBL2074415, “Expression and characterization of a functional rat liver Na+ bile acid cotransport system in COS-7 cells” (Am J Physiol, 1994).
